Laboratory results as given in PubChem BioAssay AID2060883 (Molecular Pharmacology Branch, DTP, NCI, 2025).

Test system: 843782-103-R-J1-PDC complex spheroid viability
Experiment: Anticancer human tumor 843782-103-R-J1-PDC patient-derived lung adenocarcinoma cell line growth inhibition [RAS]
Conditions: for viability, T/C: stronger effect = lower value
Text: RAS pathway inhibitors in Combinations in Complex Spheroids
A high-throughput screen of multi-cell type tumor spheroids was designed to identify active combinations of RAS pathway inhibitors and targeted small molecules. Complex spheroids include a stromal component modeled by human endothelial cells (HUVEC) and fibroblasts modeled by human mesenchymal stem cells (MSCs). The concentration ranges selected for each drug and investigational agent were based upon clinically achievable concentrations if the clinical Cmax of the agent was known.
Compounds. The drugs and investigational agents: abemaciclib (NSC768073), cobimetinib (NSC768068), divarasib (GDC6063, NSC841802), docetaxel (NSC628503), GDC-1971 (RLY-1971, NSC841576), gemcitabine (NSC613327), inavolisib (NSC800729), ipatasertib (NSC767898), KB-0742 (NSC834161), MRTX-1133 (NSC836407), osimertinib (NSC779217), RMC-4630 (NSC839698), RMC-6236 (NSC851965), RMC-6291 (NSC852671), Ro-3306 (NSC812927), sapanisertib (NSC764658), SN-38 (NSC673596), staurosporine (NSC755774), SY5609 (NSC837396), and tovorafenib (DAY101, NSC766906), were obtained from the National Cancer Institute (NCI) Developmental Therapeutics Program Chemical Repository. The FDA-approved anticancer drug set is available from the NCI Developmental Therapeutics Program. […] The stock solutions were prepared in dimethyl sulfoxide (DMSO, Sigma-Aldrich, St. Louis, MO, cat. D2650) at 800-fold the tested concentration and stored at -70 degrees C prior to their use. All drugs and investigational agents were tested over a range starting from a high concentration at or near the clinical Cmax and decreasing in half-log increments. If the clinical Cmax for an agent had not been determined, the highest concentration tested was 10 microM.
Cell Culture. All cells were maintained in an incubator at 37 degrees C and 5% CO2 with 95% humidity. The PDC lines were cultured according to standard operating procedures established by the NCI PDMR. All PDCs were thawed and cultured in Matrigel-coated flasks prepared with a working solution of 1X Ham's F-12 nutrient mix, without supplementation (Invitrogen, Waltham, MA, cat. 11765054), 100 U/mL penicillin-streptomycin (Invitrogen, cat. 15140122), and 2.5% Matrigel (Corning Inc., Corning, NY, cat. 354248) for the first three passages. The 362531-283-R-J2-PDC and 782815-120-R-J1-PDC lines were cultured in 6C/Colon 1B media, which includes advanced DMEM/F-12 (Thermo Fisher Scientific, cat. 12634028), 10 mM HEPES (Thermo Fisher Scientific, cat. 15630080), 1X GlutaMAX supplement (Thermo Fisher Scientific, cat. 35050061), 0.1 mg/mL primocin (InvivoGen, San Diego, CA, cat. ant-pm-2), 10% defined fetal bovine serum, heat inactivated (HyClone Laboratories Inc., Logan, UT, cat. SH30070.03HI), 50% L-WRN conditioned media (ATCC, cat. CRL-3276), 1.25 mM N-Acetyl-L-cysteine (Sigma-Aldrich, cat. A9165), 10 mM nicotinamide (Sigma-Aldrich, cat. N0636), 1X B-27 supplement (Thermo Fisher Scientific, cat. 17504044), 1X N-2 supplement (Thermo Fisher Scientific, cat. 17502048), 50 ng/mL human EGF (Thermo Fisher Scientific, cat. PHG0311), and 10 microM Y-27632 dihydrochloride (Tocris Bioscience, cat. 1254). The K12877-001-R-J1-PDC line was cultured in 6I media, which includes all 6C/Colon 1B media plus 10 ng/mL human FGF-10 (PeproTech, cat. 100-26), 1 ng/mL human FGF-2 (PeproTech, cat. 100-18B), 1 µM prostaglandin E2 (Tocris Bioscience, cat. 2296), […] hydrocortisone (Sigma-Aldrich, cat. H4001), and […] bovine insulin (Sigma-Aldrich, cat. I6634). The K86415-001-R-J1-PDC line was cultured in 6D media, which includes all 6C/Colon 1B media components minus the L-WRN conditioned media. The 485176-168-R4-J1-PDC was cultured in PANC media, which includes all 6C/Colon 1B media plus 100 ng/mL human FGF-10 (PeproTech, cat. 100-26), 500 nM SB-431542 (Selleckchem, cat. S1067), and 10 nM gastrin (Tocris Bioscience, cat. 3006). […]

[1] = curve of first compound, second compound 0.0316 µM
[2] = curve of first compound, second compound 0.1 µM
[3] = curve of first compound, second compound 0.316 µM
[4] = curve of first compound, second compound 1 µM
[5] = curve of first compound, second compound 3.16 µM
[6] = curve of first compound, second compound 10 µM
[7] = second compound 0.0316 µM, first compound 0.0316 µM
[8] = second compound 0.0316 µM, first compound 0.1 µM
[9] = second compound 0.0316 µM, first compound 0.316 µM
[10] = second compound 0.0316 µM, first compound 1 µM
[11] = second compound 0.0316 µM, first compound 3.16 µM
[12] = second compound 0.0316 µM, first compound 10 µM
[13] = second compound 0.1 µM, first compound 0.0316 µM
[14] = second compound 0.1 µM, first compound 0.1 µM
[15] = second compound 0.1 µM, first compound 0.316 µM
[16] = second compound 0.1 µM, first compound 1 µM
[17] = second compound 0.1 µM, first compound 3.16 µM
[18] = second compound 0.1 µM, first compound 10 µM
[19] = second compound 0.316 µM, first compound 0.0316 µM
[20] = second compound 0.316 µM, first compound 0.1 µM
[21] = second compound 0.316 µM, first compound 0.316 µM
[22] = second compound 0.316 µM, first compound 1 µM
[23] = second compound 0.316 µM, first compound 3.16 µM
[24] = second compound 0.316 µM, first compound 10 µM
[25] = second compound 1 µM, first compound 0.0316 µM
[26] = second compound 1 µM, first compound 0.1 µM
[27] = second compound 1 µM, first compound 0.316 µM
[28] = second compound 1 µM, first compound 1 µM
[29] = second compound 1 µM, first compound 3.16 µM
[30] = second compound 1 µM, first compound 10 µM
[31] = second compound 3.16 µM, first compound 0.0316 µM
[32] = second compound 3.16 µM, first compound 0.1 µM
[33] = second compound 3.16 µM, first compound 0.316 µM
[34] = second compound 3.16 µM, first compound 1 µM
[35] = second compound 3.16 µM, first compound 3.16 µM
[36] = second compound 3.16 µM, first compound 10 µM
[37] = second compound 10 µM, first compound 0.0316 µM
[38] = second compound 10 µM, first compound 0.1 µM
[39] = second compound 10 µM, first compound 0.316 µM
[40] = second compound 10 µM, first compound 1 µM
[41] = second compound 10 µM, first compound 3.16 µM
[42] = second compound 10 µM, first compound 10 µM
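Note: viability read after seven days of compound exposure.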

CC(C)NCC(C(=O)N1CCN(c2ncnc3c2C(C)CC3O)CC1)c1ccc(Cl)cc1 (stereo unspecified) + C#Cc1c(F)ccc2cc(O)cc(-c3ncc4c(N5CC6CCC(C5)N6)nc(OCC56CCCN5CC(F)C6)nc4c3F)c12
IC50 [1]: 1870 nM | IC50 [2]: 1720 nM | IC50 [3]: 1560 nM | IC50 [4]: 930 nM | IC50 [5]: 390 nM | IC50 [6]: 160 nM | viability, T/C [7]: 99.3% | viability, T/C [8]: 99.2% | viability, T/C [9]: 90.4% | viability, T/C [10]: 71.6% | viability, T/C [11]: 32.1% | viability, T/C [12]: 13.8% | viability, T/C [13]: 106% | viability, T/C [14]: 99.1% | viability, T/C [15]: 94.3% | viability, T/C [16]: 69.9% | viability, T/C [17]: 28% | viability, T/C [18]: 13.5% | viability, T/C [19]: 103% | viability, T/C [20]: 95.1% | viability, T/C [21]: 86.9% | viability, T/C [22]: 69.2% | viability, T/C [23]: 21.4% | viability, T/C [24]: 13.7% | viability, T/C [25]: 100% | viability, T/C [26]: 94.6% | viability, T/C [27]: 79.2% | viability, T/C [28]: 48% | viability, T/C [29]: 21.2% | viability, T/C [30]: 10.3% | viability, T/C [31]: 84.6% | viability, T/C [32]: 75% | viability, T/C [33]: 53.3% | viability, T/C [34]: 31.8% | viability, T/C [35]: 13% | viability, T/C [36]: 7.27% | viability, T/C [37]: 62.8% | viability, T/C [38]: 55% | viability, T/C [39]: 42.3% | viability, T/C [40]: 20% | viability, T/C [41]: 10.1% | viability, T/C [42]: 4.52%

CC(=O)OC12COC1CC(O)C1(C)C(=O)C(O)C3=C(C)C(OC(=O)C(O)C(NC(=O)OC(C)(C)C)c4ccccc4)CC(O)(C(OC(=O)c4ccccc4)C21)C3(C)C (stereo unspecified)
viability, T/C (compound 0.0316 µM): 3.82% [middle of 4 runs] | viability, T/C (compound 0.1 µM): 4.87% [middle of 4 runs] | viability, T/C (compound 0.316 µM): 5.01% [middle of 4 runs] | viability, T/C (compound 1 µM): 4.69% [middle of 4 runs] | viability, T/C (compound 3.16 µM): 6.26% [middle of 4 runs] | viability, T/C (compound 10 µM): 8.18% [middle of 4 runs] | IC50 (curve of compound): < 31.6 nM

Cc1nc(N2CCC3(CC2)COC(C)C3N)c(CO)nc1Sc1ccnc(N)c1Cl (stereo unspecified) + C#Cc1c(F)ccc2cc(O)cc(-c3ncc4c(N5CC6CCC(C5)N6)nc(OCC56CCCN5CC(F)C6)nc4c3F)c12
IC50 [1]: 8650 nM | IC50 [2]: 5420 nM | IC50 [3]: 4690 nM | IC50 [4]: 536 nM | IC50 [5]: 141 nM | IC50 [6]: < 31.6 nM | viability, T/C [7]: 107% | viability, T/C [8]: 102% | viability, T/C [9]: 85.6% | viability, T/C [10]: 77.2% | viability, T/C [11]: 68.2% | viability, T/C [12]: 45.8% | viability, T/C [13]: 105% | viability, T/C [14]: 98% | viability, T/C [15]: 83.1% | viability, T/C [16]: 72.6% | viability, T/C [17]: 54.3% | viability, T/C [18]: 44% | viability, T/C [19]: 100% | viability, T/C [20]: 91.4% | viability, T/C [21]: 79.5% | viability, T/C [22]: 65.9% | viability, T/C [23]: 50.6% | viability, T/C [24]: 46.2% | viability, T/C [25]: 96% | viability, T/C [26]: 80.9% | viability, T/C [27]: 60% | viability, T/C [28]: 39.5% | viability, T/C [29]: 29.6% | viability, T/C [30]: 32.1% | viability, T/C [31]: 82.6% | viability, T/C [32]: 54.5% | viability, T/C [33]: 39.4% | viability, T/C [34]: 27.9% | viability, T/C [35]: 27.4% | viability, T/C [36]: 23.4% | viability, T/C [37]: 49.2% | viability, T/C [38]: 32.2% | viability, T/C [39]: 30.9% | viability, T/C [40]: 25.4% | viability, T/C [41]: 21.6% | viability, T/C [42]: 21.2%
